Measurements published in the kinase profiling compilation of Christmann-Franck et al. (2016).

Columns and labels:
Test in all cases: KINOMEscan competition binding
Details in all cases: compound 2.0 µM
LATS1 (human) = LATS1 (human) (UniProt O95835)
MERTK (human) = MERTK (human) (UniProt Q12866)
AKT3 (human) = AKT3 (human) (UniProt Q9Y243)
CDK4 CCND3 (human) = CDK4 CCND3 (human) (UniProt P11802+P30281)
EPHB4 (human) = EPHB4 (human) (UniProt P54760)
[1] = system: KIT (human), P10721 [V559D/V654A]
PRPF4B (human) = PRPF4B (human) (UniProt Q13523)
PIK3CB (human) = PIK3CB (human) (UniProt P42338)
ACVR1B (human) = ACVR1B (human) (UniProt P36896)
STK39 (human) = STK39 (human) (UniProt Q9UEW8)
CASK (human) = CASK (human) (UniProt O14936)
CDC42BPA (human) = CDC42BPA (human) (UniProt Q5VT25)
PRKACA (human) = PRKACA (human) (UniProt P17612)
MAP3K7 (human) = MAP3K7 (human) (UniProt O43318)
RIOK1 (human) = RIOK1 (human) (UniProt Q9BRS2)
SIK3 (human) = SIK3 (human) (UniProt Q9Y2K2)
HIPK4 (human) = HIPK4 (human) (UniProt Q8NE63)
ADCK4 (human) = ADCK4 (human) (UniProt Q96D53)
PKN1 (human) = PKN1 (human) (UniProt Q16512)
CSNK1G1 (human) = CSNK1G1 (human) (UniProt Q9HCP0)
TIE1 (human) = TIE1 (human) (UniProt P35590)
MYO3B (human) = MYO3B (human) (UniProt Q8WXR4)
[2] = target: TYK2 JH1 catalytic (human) (UniProt P29597)
MAP4K2 (human) = MAP4K2 (human) (UniProt Q12851)
RIPK2 (human) = RIPK2 (human) (UniProt O43353)
MAP2K7 (human) = MAP2K7 (human) (UniProt O14733)
SLK (human) = SLK (human) (UniProt Q9H2G2)
INSR (human) = INSR (human) (UniProt P06213)
TXK (human) = TXK (human) (UniProt P42681)
FLT3 (human) = FLT3 (human) (UniProt P36888)
[3] = system: EGFR (human), P00533 [747-751 del / S ins]
MAPKAPK5 (human) = MAPKAPK5 (human) (UniProt Q8IW41)
PAK1 (human) = PAK1 (human) (UniProt Q13153)
MAP3K1 (human) = MAP3K1 (human) (UniProt Q13233)
CLK4 (human) = CLK4 (human) (UniProt Q9HAZ1)
PAK4 (human) = PAK4 (human) (UniProt O96013)
NEK4 (human) = NEK4 (human) (UniProt P51957)
CPK1 (P.falciparum) = system: CPK1 (P.falciparum)
PAK2 (human) = PAK2 (human) (UniProt Q13177)
STK10 (human) = STK10 (human) (UniProt O94804)
PTK2B (human) = PTK2B (human) (UniProt Q14289)
LIMK2 (human) = LIMK2 (human) (UniProt P53671)
CSNK1A1L (human) = CSNK1A1L (human) (UniProt Q8N752)

Chain of NEK4 (human) (P51957 whole entry, looked up): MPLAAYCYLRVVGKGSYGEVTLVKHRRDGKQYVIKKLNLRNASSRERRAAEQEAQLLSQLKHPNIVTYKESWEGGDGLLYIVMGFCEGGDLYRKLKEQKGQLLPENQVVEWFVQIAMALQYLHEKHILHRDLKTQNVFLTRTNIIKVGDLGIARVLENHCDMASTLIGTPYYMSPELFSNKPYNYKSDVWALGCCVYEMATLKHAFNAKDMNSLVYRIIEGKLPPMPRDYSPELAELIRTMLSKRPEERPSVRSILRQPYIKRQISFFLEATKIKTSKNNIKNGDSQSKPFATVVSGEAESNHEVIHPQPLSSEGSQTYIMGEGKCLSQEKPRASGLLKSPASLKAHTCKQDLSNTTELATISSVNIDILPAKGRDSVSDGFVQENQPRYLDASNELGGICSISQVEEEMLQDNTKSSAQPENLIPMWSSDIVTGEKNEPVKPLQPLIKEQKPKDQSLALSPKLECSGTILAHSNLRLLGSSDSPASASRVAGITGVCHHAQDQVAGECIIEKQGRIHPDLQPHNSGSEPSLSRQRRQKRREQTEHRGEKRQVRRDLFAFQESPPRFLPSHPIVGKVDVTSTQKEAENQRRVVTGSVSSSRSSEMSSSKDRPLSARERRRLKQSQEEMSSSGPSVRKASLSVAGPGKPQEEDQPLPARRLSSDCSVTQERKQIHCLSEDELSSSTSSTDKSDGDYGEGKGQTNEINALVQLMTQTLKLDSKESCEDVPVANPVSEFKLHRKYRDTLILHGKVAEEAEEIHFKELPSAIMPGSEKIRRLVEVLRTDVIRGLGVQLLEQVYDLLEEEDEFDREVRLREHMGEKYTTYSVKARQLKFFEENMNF
Chain of ACVR1B (human) (P36896 whole entry, looked up): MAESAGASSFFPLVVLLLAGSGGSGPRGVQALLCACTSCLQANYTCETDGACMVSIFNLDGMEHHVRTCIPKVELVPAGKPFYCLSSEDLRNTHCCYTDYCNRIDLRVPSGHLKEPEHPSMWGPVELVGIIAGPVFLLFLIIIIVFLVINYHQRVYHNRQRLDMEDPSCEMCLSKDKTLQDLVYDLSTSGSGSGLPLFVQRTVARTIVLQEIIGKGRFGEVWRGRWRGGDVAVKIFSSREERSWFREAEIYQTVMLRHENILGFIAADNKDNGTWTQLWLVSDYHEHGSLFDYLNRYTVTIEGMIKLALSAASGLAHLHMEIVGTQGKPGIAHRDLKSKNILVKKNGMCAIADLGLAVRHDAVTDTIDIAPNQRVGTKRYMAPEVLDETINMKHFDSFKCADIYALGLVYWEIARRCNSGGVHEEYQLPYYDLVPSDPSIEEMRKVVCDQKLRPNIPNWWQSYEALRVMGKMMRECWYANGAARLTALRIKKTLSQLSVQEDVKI
Chain of LIMK2 (human) (P53671 whole entry, looked up): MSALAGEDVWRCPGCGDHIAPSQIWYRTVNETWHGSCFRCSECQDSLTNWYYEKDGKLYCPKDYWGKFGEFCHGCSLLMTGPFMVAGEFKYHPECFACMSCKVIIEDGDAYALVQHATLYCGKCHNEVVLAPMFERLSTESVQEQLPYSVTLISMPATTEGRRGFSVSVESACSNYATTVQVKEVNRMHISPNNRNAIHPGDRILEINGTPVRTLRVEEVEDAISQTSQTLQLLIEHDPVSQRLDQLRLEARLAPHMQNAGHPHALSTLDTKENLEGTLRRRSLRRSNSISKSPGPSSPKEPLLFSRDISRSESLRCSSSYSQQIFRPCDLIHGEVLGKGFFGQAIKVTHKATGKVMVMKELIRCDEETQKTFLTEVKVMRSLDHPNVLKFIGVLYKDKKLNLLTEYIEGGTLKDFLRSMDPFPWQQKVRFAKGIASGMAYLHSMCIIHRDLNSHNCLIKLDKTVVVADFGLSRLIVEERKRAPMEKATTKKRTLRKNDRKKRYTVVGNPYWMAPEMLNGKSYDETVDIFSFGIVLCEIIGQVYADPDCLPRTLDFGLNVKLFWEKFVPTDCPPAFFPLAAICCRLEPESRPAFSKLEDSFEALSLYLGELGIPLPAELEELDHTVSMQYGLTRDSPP
Chain of STK10 (human) (O94804 whole entry, looked up): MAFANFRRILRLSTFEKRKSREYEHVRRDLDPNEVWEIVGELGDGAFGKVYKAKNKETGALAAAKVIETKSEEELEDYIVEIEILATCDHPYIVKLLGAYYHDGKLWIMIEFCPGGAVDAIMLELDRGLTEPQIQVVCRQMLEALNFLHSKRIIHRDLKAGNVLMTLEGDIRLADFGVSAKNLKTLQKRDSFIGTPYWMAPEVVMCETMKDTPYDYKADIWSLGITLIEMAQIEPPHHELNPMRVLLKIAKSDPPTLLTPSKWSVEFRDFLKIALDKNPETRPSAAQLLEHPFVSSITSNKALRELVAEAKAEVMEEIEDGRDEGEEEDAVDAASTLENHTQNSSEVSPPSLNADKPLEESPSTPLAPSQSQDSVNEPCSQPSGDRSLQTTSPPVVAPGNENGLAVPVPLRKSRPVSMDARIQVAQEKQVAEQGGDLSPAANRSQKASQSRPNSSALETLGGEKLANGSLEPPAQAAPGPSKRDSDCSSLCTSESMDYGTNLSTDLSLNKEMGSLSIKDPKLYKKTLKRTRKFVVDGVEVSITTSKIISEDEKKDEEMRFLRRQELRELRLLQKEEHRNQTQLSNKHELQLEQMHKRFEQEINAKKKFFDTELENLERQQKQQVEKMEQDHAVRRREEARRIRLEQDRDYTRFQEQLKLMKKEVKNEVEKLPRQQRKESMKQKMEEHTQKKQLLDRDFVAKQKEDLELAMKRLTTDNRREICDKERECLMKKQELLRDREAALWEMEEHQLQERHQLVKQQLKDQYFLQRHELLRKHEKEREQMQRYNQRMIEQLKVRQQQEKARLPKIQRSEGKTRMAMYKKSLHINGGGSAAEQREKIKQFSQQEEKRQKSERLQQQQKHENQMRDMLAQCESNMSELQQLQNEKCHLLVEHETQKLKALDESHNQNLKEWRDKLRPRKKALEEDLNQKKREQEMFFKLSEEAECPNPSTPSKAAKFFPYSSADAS
Chain of MAPKAPK5 (human) (Q8IW41 whole entry, looked up): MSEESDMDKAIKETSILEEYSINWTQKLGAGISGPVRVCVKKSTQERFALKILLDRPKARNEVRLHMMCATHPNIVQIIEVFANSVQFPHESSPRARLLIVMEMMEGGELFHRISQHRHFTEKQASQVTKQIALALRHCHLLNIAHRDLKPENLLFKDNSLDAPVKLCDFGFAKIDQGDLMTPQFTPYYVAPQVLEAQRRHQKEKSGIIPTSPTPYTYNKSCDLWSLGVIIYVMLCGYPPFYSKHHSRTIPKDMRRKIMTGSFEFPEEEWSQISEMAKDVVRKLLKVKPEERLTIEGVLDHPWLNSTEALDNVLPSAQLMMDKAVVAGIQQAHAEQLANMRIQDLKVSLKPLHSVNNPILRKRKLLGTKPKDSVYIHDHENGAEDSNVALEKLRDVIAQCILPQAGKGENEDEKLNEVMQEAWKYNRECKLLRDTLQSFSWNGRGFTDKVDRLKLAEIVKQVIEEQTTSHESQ
Chain of TIE1 (human) (P35590 whole entry, looked up): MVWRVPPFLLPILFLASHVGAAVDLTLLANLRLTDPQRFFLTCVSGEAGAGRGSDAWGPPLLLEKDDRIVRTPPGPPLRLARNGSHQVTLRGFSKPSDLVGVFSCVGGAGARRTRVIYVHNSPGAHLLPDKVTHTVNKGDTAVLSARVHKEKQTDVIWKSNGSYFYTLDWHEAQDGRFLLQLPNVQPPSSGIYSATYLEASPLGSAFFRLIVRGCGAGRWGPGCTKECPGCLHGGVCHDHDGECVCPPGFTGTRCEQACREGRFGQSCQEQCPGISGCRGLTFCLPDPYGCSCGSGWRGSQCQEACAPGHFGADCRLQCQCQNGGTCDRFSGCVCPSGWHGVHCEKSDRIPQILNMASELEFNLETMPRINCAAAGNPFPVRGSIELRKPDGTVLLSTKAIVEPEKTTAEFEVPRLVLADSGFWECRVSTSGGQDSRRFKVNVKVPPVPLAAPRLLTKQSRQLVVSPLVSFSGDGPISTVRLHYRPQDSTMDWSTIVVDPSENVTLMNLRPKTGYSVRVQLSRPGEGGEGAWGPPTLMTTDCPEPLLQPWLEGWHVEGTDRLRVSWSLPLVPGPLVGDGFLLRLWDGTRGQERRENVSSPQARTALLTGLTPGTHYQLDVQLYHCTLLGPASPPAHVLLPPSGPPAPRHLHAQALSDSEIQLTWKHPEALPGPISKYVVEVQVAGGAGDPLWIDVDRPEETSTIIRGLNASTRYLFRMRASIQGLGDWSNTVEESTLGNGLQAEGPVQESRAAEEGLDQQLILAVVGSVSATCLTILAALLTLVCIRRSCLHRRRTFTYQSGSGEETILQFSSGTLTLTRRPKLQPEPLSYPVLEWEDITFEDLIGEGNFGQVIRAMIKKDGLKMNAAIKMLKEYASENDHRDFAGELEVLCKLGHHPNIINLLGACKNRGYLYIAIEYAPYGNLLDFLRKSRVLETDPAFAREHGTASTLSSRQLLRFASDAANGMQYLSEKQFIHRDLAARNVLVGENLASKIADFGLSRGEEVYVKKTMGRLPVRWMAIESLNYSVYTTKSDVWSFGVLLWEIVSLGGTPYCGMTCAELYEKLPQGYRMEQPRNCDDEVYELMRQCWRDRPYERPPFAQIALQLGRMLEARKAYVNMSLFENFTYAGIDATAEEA
Chain of AKT3 (human) (Q9Y243 whole entry, looked up): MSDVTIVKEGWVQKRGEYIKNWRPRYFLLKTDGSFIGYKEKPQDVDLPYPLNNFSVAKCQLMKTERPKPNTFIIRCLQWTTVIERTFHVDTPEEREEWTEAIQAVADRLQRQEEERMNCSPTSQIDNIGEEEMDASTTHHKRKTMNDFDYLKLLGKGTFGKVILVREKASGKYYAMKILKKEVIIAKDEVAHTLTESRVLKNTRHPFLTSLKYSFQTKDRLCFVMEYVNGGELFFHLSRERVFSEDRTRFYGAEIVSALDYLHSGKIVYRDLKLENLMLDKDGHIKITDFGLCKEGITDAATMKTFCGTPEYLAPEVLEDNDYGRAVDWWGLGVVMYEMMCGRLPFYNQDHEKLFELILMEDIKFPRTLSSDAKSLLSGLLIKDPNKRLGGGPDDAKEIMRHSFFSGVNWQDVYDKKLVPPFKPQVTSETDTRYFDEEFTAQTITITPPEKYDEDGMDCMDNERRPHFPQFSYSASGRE

N#Cc1ccc2ncnc(NCCc3ccc4ccccc4c3)c2c1
kinase still bound, per cent of control (LATS1 (human)): 93%
kinase still bound, per cent of control (MERTK (human)): 93%
kinase still bound, per cent of control (AKT3 (human)): 98%
kinase still bound, per cent of control (CDK4 CCND3 (human)): 100%
kinase still bound, per cent of control (EPHB4 (human)): 100%
kinase still bound, per cent of control [1]: 100%
kinase still bound, per cent of control (PRPF4B (human)): 100%
kinase still bound, per cent of control (PIK3CB (human)): 39%
kinase still bound, per cent of control (ACVR1B (human)): 100%
kinase still bound, per cent of control (STK39 (human)): 98%
kinase still bound, per cent of control (CASK (human)): 100%
kinase still bound, per cent of control (CDC42BPA (human)): 100%
kinase still bound, per cent of control (PRKACA (human)): 100%
kinase still bound, per cent of control (MAP3K7 (human)): 78%
kinase still bound, per cent of control (RIOK1 (human)): 71%
kinase still bound, per cent of control (SIK3 (human)): 100%
kinase still bound, per cent of control (HIPK4 (human)): 81%
kinase still bound, per cent of control (ADCK4 (human)): 100%
kinase still bound, per cent of control (PKN1 (human)): 100%
kinase still bound, per cent of control (CSNK1G1 (human)): 83%
kinase still bound, per cent of control (TIE1 (human)): 90%
kinase still bound, per cent of control (MYO3B (human)): 96%
kinase still bound, per cent of control [2]: 93%
kinase still bound, per cent of control (MAP4K2 (human)): 60%
kinase still bound, per cent of control (RIPK2 (human)): 100%
kinase still bound, per cent of control (MAP2K7 (human)): 94%
kinase still bound, per cent of control (SLK (human)): 73%
kinase still bound, per cent of control (INSR (human)): 100%
kinase still bound, per cent of control (TXK (human)): 94%
kinase still bound, per cent of control (FLT3 (human)): 79%
kinase still bound, per cent of control [3]: 71%
kinase still bound, per cent of control (MAPKAPK5 (human)): 79%
kinase still bound, per cent of control (PAK1 (human)): 82%
kinase still bound, per cent of control (MAP3K1 (human)): 92%
kinase still bound, per cent of control (CLK4 (human)): 60%
kinase still bound, per cent of control (PAK4 (human)): 91%
kinase still bound, per cent of control (NEK4 (human)): 100%
kinase still bound, per cent of control (CPK1 (P.falciparum)): 95%
kinase still bound, per cent of control (PAK2 (human)): 82%
kinase still bound, per cent of control (STK10 (human)): 67%
kinase still bound, per cent of control (PTK2B (human)): 85%
kinase still bound, per cent of control (LIMK2 (human)): 94%
kinase still bound, per cent of control (CSNK1A1L (human)): 89%
